In one test the target is T1, NBD1 (Homo sapiens, UniProt P13569).
T1 construct: Purified recombinant NBD1 was produced using previously described methods; made in house
In words: Aggregation analysis using differential static light scattering (DSLS), thermal stability of NBD1 (ΔTagg). Format: binding. The settings on record: ΔTagg versus DMSO control, NBD1 0.2 mg/ml. In short, it runs like this:
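NBD1 0.2 mg/ml, S200 buffer (50 mM Tris-HCl, 150 mM NaCl, 5 mM MgCl2, 2 mM ATP, 2 mM DTT, pH7.6) + 1% glycerol; cpd in DMSO; oil overlay. Ramp 25→70° C. at 1° C./min, DSLS images every 0.5° C. ΔTagg = Tagg (inflection) − mean DMSO Tagg.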

In a further test the target is T2, CFTR (Homo sapiens, UniProt P13569, DEL508-508).
T2 construct: Primary human bronchial epithelial cells from a ΔF508 homozygous CF donor; host or cells: primary human bronchial epithelial cells (CF-HBE), ΔF508 homozygous donor
T2 sequence (P13569 with tags, fused parts or gaps DEL508-508): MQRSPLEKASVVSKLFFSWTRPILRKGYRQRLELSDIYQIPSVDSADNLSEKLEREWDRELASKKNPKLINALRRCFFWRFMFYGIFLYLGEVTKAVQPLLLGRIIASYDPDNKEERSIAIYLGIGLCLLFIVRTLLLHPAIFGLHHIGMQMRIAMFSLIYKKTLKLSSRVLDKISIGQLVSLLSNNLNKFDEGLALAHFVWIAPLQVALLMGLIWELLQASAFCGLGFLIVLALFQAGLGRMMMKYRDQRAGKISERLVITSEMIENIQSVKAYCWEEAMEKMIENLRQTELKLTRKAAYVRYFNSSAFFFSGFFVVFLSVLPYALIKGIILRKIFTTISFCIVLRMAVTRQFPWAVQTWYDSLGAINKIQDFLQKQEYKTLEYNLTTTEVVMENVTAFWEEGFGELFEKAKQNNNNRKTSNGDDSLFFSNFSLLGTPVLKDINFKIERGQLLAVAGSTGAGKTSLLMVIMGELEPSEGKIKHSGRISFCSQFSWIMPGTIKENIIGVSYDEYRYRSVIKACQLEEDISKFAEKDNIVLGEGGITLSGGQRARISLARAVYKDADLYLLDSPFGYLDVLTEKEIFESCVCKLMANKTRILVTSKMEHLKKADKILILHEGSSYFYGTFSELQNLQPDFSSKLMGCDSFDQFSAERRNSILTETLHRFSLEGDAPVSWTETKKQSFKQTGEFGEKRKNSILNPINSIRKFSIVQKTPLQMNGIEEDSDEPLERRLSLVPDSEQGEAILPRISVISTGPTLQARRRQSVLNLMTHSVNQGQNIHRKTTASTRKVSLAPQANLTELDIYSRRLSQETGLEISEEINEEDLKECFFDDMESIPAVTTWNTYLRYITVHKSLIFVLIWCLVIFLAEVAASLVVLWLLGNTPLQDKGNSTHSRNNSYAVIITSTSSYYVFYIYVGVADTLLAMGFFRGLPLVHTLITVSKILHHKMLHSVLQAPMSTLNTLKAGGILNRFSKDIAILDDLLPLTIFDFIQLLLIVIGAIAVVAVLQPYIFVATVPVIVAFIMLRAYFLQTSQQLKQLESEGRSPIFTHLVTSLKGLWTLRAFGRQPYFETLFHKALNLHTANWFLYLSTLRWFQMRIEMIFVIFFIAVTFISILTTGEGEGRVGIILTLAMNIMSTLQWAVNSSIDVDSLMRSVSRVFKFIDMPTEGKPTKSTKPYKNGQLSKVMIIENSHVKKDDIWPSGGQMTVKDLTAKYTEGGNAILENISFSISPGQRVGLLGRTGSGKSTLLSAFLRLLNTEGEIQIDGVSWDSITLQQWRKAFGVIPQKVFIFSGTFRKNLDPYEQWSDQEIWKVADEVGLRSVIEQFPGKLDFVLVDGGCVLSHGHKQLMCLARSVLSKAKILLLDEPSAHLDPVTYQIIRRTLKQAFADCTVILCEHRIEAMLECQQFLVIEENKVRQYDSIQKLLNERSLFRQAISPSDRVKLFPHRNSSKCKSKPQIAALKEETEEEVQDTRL
In words: TECC24 AUC fold over DMSO @10 μM, CFTR-mediated transepithelial chloride transport in CF-HBE cells. The settings on record: test agent AUC divided by DMSO vehicle AUC, primary CF-HBE cells, ΔF508 homozygous donor, 48 hours incubation. Format: cell-based. On the procedure: Example 387. TECC24 AUC Fold Over DMSO @10 μM
The effects of a test agent on CFTR-mediated transepithelial chloride transport is measured using TECC24 recording analysis. Test agents are solubilized in DMSO. Solubilized test agents are mixed with incubation medium containing DMEM/F12, Ultroser G (2%; Crescent Chemical, catalog #67042), Hyclone Fetal Clone II (2%; GE Healthcare, catalog #SH30066.02), bovine brain extract (0.25%; Lonza, catalog #CC-4098), insulin (2.5 μg/mL), IL-13 (10 ng/mL), hydrocortisone (20 nM), transferrin (2.5 μg/mL), triiodothyronine (500 nM), ethanolamine (250 nM), epinephrine (1.5 μM), phosphoethanolamine (250 nM), and retinoic acid (10 nM). Primary human bronchial epithelial cells from a ΔF508 homozygous CF donor (CF-HBE cells; from University of North Carolina Cystic Fibrosis Tissue Procurement Center), grown on Transwell HTS 24-well cell culture inserts (Costar, catalog #3378), are exposed to test agents or controls dissolved in incubation medium. The CF-HBE cells are cultured at 36.5° C. for 48 hours before TECC24 recordings are performed in the presence or absence of test agent, a positive control or vehicle (DMSO).
Following incubation, the transwell cell culture inserts containing the test agent or control-treated CF-HBE cells are loaded onto a TECC24 apparatus (TECC v7 or MTECC v2; EP Design) to record the transepithelial voltage (VT) and resistance (TEER) using 4 AgCl electrodes per well configured in current-clamp mode. The apical and basolateral bath solutions both contain (in mM) 140 NaCl, 5 KCl, 2 CaCl2, 1 MgCl2, 10 Hepes, and 10 glucose (adjusted to pH 7.4 with NaOH). To inhibit basal Na+ absorption, the ENaC inhibitor benzamil (10 μM) is added to the bath. Then, the adenylate cyclase activator, forskolin (10 μM), is added to the bath to activate CFTR. The forskolin-stimulated Cl— transport is halted by addition of CFTR inhibitor-172 (20 μM) to the bath at the end of the experiment to confirm specificity. VT and TEER recordings are digitally acquired at routine intervals using TECC or MTECC software (EP Design). VT and TEER are transformed into equivalent transepithelial Cl— current (IEQ), and the Area Under the Curve (AUC) of the IEQ time course between forskolin and CFTR inhibitor-172 addition is generated using Excel (Microsoft). Efficacy is expressed as the ratio of the test agent AUC divided by vehicle AUC. EC50s based on AUC are generated using the non-linear regression log(agonist) vs. response function in Prism software (Graphpad) with HillSlope fixed=1.
If a test agent increases the AUC of the forskolin-stimulated IEQ relative to vehicle in CF-HBE cells, and this increase is inhibited by CFTR inhibitor-172, then the test agent is considered a CFTR corrector. TECC assay efficacy is expressed as the ratio of the test agent AUC divided by DMSO vehicle AUC. As set forth in Table 2 below, a TECC value less than 12 is marked “A”; a value between 12-20 is marked “B”; a value between 20 and 80 is marked “C”. […]

T1 sequence (P13569 423-646 limits assumed): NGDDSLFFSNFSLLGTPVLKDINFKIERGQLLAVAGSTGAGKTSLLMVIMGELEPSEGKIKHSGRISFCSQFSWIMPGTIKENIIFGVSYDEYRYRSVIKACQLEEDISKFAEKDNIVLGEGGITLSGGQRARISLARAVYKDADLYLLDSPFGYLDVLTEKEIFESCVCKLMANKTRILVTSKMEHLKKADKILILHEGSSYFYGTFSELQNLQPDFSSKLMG

In the case of `CC(CCc1cccc(C2(C)CCCC(C)(C)CS(=O)(=O)CCc3c(c(F)cc4[nH]ccc34)Oc3ccc(F)c(c3)-c3nc2nn3C)c1)C(=O)O` (stereo not drawn) [Compound 160, 4-[3-(22,28-Difluoro-3,6,10,10-tetramethyl-12,12-dioxo-24-oxa-12λ6-thia-3,4,19,30-tetrazapentacyclo[23.3.1.12,5.015,23.016,20]triaconta-1(29),2(30),4,15,17,20,22,25,27-nonaen-6-yl)phenyl]-2-methyl-butanoic Acid], the “DSLS 3D (100 μM ΔT)” value on NBD1 was “C (a value greater than 10 °C and less than or equal to 25 °C is marked “C”)”. For the same compound, the “TECC (AUC, 10 μM)” value on CFTR was “A (a TECC value less than 12 is marked “A”)”.

Consider `CC1(C)CCCC(C)(c2cccc(CCC(=O)O)c2)c2nc(n[nH]2)-c2cc(ccc2F)Oc2c(F)cc3[nH]ccc3c2CCS(=O)(=O)C1` (single isomer, unassigned) [Compound 63B, 3-[3-(22,28-difluoro-6,10,10-trimethyl-12,12-dioxo-24-oxa-12λ6-thia-3,4,19,30-tetrazapentacyclo[23.3.1.12,5.015,23.016,20]triaconta-1(29),2,5(30),15,17,20,22,25,27-nonaen-6-yl)phenyl]propanoic Acid], for which, on NBD1, the “DSLS 3D (100 μM ΔT)” value was “C (a value greater than 10 °C and less than or equal to 25 °C is marked “C”)”. Further, on CFTR, the “TECC (AUC, 10 μM)” value was “C (a value between 20 and 80 is marked “C”)”.

Take `C[C@@H](Cc1cccc([C@@]2(C)CCCC(C)(C)CS(=O)(=O)CCc3c(c(F)cc4[nH]ccc34)Sc3ccnc(c3)-c3nc2nn3C)c1F)C(=O)O` [Compound 277, (2S)-3-[2-fluoro-3-[(6R)-22-fluoro-3,6,10,10-tetramethyl-12,12-dioxo-12λ6,24-dithia-3,4,19,28,30-pentazapentacyclo[23.3.1.12,5.015,23.016,20]triaconta-1(29),2(30),4,15,17,20,22,25,27-nonaen-6-yl]phenyl]-2-methyl-propanoic acid]: the “DSLS 3D (100 μM ΔT)” value at NBD1 is “C (a value greater than 10 °C and less than or equal to 25 °C is marked “C”)”. For the same compound, the “TECC (AUC, 10 μM)” value at CFTR is on record as “A (a TECC value less than 12 is marked “A”)”.

With `CC1(C)CCCC(C)(c2cccc(CCC(=O)O)c2)c2c[nH]c(n2)-c2cc(ccc2F)Oc2c(F)cc3[nH]ccc3c2CCS(=O)(=O)C1` (single isomer, unassigned) [Compound 27B, 3-[3-(22,28-difluoro-6,10,10-trimethyl-12,12-dioxo-24-oxa-12lambda6-thia-3,19,30-triazapentacyclo[23.3.1.12,5.015,23.016,20]triaconta-1(29),2,4,15,17,20,22,25,27-nonaen-6-yl)phenyl]propanoic acid], the “DSLS 3D (100 μM ΔT)” value on NBD1 is “C (a value greater than 10 °C and less than or equal to 25 °C is marked “C”)”. Moreover, the “TECC (AUC, 10 μM)” value at CFTR was “C (a value between 20 and 80 is marked “C”)”.

Take `Cn1nc2nc1-c1cc(ccc1F)Oc1c(F)cc3[nH]ccc3c1CCS(=O)(=O)CC(C)(C)CCCC2(C)c1cccc(O)c1` (stereo not drawn) [Compound 154, 3-(22,28-Difluoro-3,6,10,10-tetramethyl-12,12-dioxo-24-oxa-12λ6-thia-3,4,19,30-tetrazapentacyclo[23.3.1.12,5.015,23.016,20]triaconta-1(29),2(30),4,15,17,20,22,25,27-nonaen-6-yl)phenol]: the “DSLS 3D (100 μM ΔT)” value on NBD1 was “B (a value above 5 °C and less than or equal to 10 °C is marked “B”)”. Besides, the “TECC (AUC, 10 μM)” value on CFTR is “A (a TECC value less than 12 is marked “A”)”.

Turning to `Cn1nc2nc1-c1cc(ccc1F)[S+]([O-])c1c(F)cc3[nH]ccc3c1CCS(=O)(=O)CC(C)(C)CCC[C@]2(C)c1cccc(CCO)c1` (single isomer, unassigned) [Compound 216A], the “DSLS 3D (100 μM ΔT)” value on NBD1 is “B (a value above 5 °C and less than or equal to 10 °C is marked “B”)”. Further, at CFTR, the “TECC (AUC, 10 μM)” value was “B (a value between 12-20 is marked “B”)”.

In the case of `O=S1(=O)CCc2cn(nn2)Cc2c(c(F)cc3[nH]ccc23)Oc2ccc(F)c(c2)-c2ncc([nH]2)C(c2ccccc2F)CC1` (stereo not drawn) [Compound 41, 24,30-Difluoro-6-(2-fluorophenyl)-26-oxa-9λ6-thia-3,13,14,15,21,33-hexazahexacyclo[25.3.1.12,5.112,15.017,25.018,22]tritriaconta-1(31),2,4,12(32),13,17,19,22,24,27,29-undecaene 9,9-dioxide], the “DSLS 3D (100 μM ΔT)” value at NBD1 is “C (a value greater than 10 °C and less than or equal to 25 °C is marked “C”)”. The “TECC (AUC, 10 μM)” value on CFTR was “A (a TECC value less than 12 is marked “A”)”.

Take `C[C@@H](Cc1cccc(C2(C)CCCC(C)(C)CS(=O)(=O)CCc3c(c(F)cc4[nH]ccc34)[S+]([O-])c3ccc(F)c(c3)-c3nc2nn3C)n1)C(=O)O` (single isomer, unassigned) [Compound 179B]: the “DSLS 3D (100 μM ΔT)” value at NBD1 is “A (an ΔTagg value less than or equal to 5 °C is marked “A”)”. Also, at CFTR, the “TECC (AUC, 10 μM)” value is on record as “A (a TECC value less than 12 is marked “A”)”.

With `C/C(C(=O)O)=C(/C)c1cccc(C2(C)CCCC(C)(C)CS(=O)(=O)CCc3c(c(F)cc4[nH]ccc34)Oc3ccc(F)c(c3)-c3nc2nn3C)c1` (stereo not drawn) [Compound 155, (E)-3-[3-(22,28-Difluoro-3,6,10,10-tetramethyl-12,12-dioxo-24-oxa-12λ6-thia-3,4,19,30-tetrazapentacyclo[23.3.1.12,5.015,23.016,20]triaconta-1(29),2(30),4,15,17,20,22,25,27-nonaen-6-yl)phenyl]-2-methyl-but-2-enoic Acid], on NBD1, the “DSLS 3D (100 μM ΔT)” value was “C (a value greater than 10 °C and less than or equal to 25 °C is marked “C”)”. In addition, the “TECC (AUC, 10 μM)” value on CFTR is on record as “A (a TECC value less than 12 is marked “A”)”.

For the compound `Cn1nc2nc1-c1cc(ccc1F)Oc1c(F)cc3[nH]ccc3c1CCS(=O)(=O)/C=C(\F)C(C)(C)CCC2(C)c1cccc(CCC(=O)O)c1` (racemic) [Compound 94, 3-[3-[(10Z)-10,22,28-Trifluoro-3,6,9,9-tetramethyl-12,12-dioxo-24-oxa-12lambda6-thia-3,4,19,30-tetrazapentacyclo-[23.3.1.12,5.015,23.016,20]triaconta-1(29),2(30),4,10,15,17,20,22,25,27-decaen-6-yl]phenyl]propanoic Acid], the “DSLS 3D (100 μM ΔT)” value at NBD1 was “A (an ΔTagg value less than or equal to 5 °C is marked “A”)”. Also, the “TECC (AUC, 10 μM)” value on CFTR is “A (a TECC value less than 12 is marked “A”)”.

In the case of `C[C@@H](Cc1cccc([C@@]2(C)CCCC(C)(C)CS(=O)(=O)CCc3c(c(F)cc4[nH]ccc34)[S+]([O-])c3ccnc(c3)-c3nc2co3)c1)C(=O)O` (stereo partly drawn) [Compound 229, (2S)-3-[3-[(6R)-22-Fluoro-6,10,10-trimethyl-12,12,24-trioxo-3-oxa-12λ6,24λ4-dithia-19,28,30-triazapentacyclo[23.3.1.12,5.015,23.016,20]triaconta-1(29),2(30),4,15,17,20,22,25,27-nonaen-6-yl]phenyl]-2-methyl-propanoic Acid], the “DSLS 3D (100 μM ΔT)” value at NBD1 is “C (a value greater than 10 °C and less than or equal to 25 °C is marked “C”)”. Moreover, the “TECC (AUC, 10 μM)” value at CFTR is “C (a value between 20 and 80 is marked “C”)”.

Take `COc1ccc2cc1-c1nc(nn1C)C(C)(c1cccc(C[C@@H](C)C(=O)O)c1)CCCC(C)(C)CS(=O)(=O)CCc1c(c(F)cc3[nH]ccc13)C2=O` (single isomer, unassigned) [Compound 127B]: the “DSLS 3D (100 μM ΔT)” value on NBD1 is “A (an ΔTagg value less than or equal to 5 °C is marked “A”)”. Moreover, the “TECC (AUC, 10 μM)” value on CFTR was “A (a TECC value less than 12 is marked “A”)”.
